# Legend:
# [1] = biological target: human CYP2D6 (Homo sapiens, UniProt P10635)
# [2] = biological target: human CYP2C9 (Homo sapiens, UniProt P11712)
# [3] = biological target: human CYP2C19 (Homo sapiens, UniProt P33261)
# [4] = biological target: Photinus pyralis (firefly) luciferase (Photinus pyralis, UniProt P08659); assay: biochemical; format: biochemical
# [5] = biological target: T1, human CYP1A2 (Homo sapiens, UniProt P05177)
# T1 sequence (P05177 1-516): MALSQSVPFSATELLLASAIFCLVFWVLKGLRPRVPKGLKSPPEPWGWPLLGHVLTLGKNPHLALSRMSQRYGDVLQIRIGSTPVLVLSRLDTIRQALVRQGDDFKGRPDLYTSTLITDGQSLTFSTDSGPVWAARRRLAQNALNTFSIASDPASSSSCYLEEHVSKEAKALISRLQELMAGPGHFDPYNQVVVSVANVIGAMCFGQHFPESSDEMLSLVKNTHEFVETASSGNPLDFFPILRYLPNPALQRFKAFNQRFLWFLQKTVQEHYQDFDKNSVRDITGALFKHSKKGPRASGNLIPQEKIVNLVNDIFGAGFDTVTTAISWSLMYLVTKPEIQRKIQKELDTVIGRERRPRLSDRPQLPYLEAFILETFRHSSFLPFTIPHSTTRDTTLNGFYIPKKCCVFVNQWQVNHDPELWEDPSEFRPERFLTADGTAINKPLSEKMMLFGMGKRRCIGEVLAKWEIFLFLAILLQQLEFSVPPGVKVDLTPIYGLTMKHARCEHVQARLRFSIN
# [6] = biological target: CYP3A4 (Homo sapiens, UniProt P08684)
# CYP3A4, sequence (P08684 whole entry): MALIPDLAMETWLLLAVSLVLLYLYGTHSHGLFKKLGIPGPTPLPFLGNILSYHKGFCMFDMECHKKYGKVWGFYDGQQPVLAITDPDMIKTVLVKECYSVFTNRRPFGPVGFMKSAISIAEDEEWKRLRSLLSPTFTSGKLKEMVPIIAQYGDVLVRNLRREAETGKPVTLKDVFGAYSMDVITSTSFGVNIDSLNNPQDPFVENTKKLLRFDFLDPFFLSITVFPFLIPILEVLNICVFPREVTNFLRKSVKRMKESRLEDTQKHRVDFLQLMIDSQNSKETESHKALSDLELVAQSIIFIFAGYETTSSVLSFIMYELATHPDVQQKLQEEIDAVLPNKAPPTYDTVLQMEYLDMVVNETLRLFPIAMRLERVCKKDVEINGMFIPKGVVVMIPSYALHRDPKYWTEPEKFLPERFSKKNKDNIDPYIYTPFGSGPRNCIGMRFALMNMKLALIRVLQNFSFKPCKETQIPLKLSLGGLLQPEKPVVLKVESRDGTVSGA
# human CYP2C19, sequence (P33261 whole entry): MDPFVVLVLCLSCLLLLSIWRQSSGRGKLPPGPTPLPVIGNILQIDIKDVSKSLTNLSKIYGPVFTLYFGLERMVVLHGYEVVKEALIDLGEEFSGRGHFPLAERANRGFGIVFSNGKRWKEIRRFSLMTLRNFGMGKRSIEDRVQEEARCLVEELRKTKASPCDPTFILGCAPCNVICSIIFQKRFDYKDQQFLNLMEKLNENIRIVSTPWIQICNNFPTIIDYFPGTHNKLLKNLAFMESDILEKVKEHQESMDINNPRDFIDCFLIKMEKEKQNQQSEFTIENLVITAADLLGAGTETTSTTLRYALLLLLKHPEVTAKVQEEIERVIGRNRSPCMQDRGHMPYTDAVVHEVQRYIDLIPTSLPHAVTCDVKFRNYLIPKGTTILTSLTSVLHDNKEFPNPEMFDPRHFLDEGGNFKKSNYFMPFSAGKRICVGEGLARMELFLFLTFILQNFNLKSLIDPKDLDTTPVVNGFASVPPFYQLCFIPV
# Photinus pyralis (firefly) luciferase, sequence (P08659 whole entry): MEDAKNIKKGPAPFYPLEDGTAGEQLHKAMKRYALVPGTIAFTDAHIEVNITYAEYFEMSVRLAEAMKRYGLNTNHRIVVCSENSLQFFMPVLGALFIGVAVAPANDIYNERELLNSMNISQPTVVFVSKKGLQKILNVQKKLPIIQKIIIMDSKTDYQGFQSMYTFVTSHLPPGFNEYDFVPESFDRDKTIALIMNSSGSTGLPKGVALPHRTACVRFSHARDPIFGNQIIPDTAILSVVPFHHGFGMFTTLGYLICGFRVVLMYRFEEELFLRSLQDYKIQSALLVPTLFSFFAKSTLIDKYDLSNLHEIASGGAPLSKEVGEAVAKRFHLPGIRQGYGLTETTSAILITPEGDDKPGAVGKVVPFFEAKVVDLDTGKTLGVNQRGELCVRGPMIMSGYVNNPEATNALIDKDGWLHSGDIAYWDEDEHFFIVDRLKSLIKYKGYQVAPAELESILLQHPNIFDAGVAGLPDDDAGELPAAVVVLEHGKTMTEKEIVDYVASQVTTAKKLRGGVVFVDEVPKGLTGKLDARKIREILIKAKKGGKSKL
# human CYP2D6, sequence (P10635 whole entry): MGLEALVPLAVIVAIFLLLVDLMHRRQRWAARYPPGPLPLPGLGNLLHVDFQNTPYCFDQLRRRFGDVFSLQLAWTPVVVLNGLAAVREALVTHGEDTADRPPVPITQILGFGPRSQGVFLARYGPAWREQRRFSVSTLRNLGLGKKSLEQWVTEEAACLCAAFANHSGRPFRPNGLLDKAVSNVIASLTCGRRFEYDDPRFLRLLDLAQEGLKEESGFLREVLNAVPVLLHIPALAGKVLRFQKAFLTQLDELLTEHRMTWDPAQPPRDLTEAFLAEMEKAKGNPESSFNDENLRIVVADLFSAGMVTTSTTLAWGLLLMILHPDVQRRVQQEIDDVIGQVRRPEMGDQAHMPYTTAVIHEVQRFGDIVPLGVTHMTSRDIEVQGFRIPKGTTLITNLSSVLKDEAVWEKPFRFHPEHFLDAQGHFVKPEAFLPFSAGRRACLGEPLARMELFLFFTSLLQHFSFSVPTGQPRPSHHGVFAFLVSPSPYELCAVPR
# human CYP2C9, sequence (P11712 whole entry): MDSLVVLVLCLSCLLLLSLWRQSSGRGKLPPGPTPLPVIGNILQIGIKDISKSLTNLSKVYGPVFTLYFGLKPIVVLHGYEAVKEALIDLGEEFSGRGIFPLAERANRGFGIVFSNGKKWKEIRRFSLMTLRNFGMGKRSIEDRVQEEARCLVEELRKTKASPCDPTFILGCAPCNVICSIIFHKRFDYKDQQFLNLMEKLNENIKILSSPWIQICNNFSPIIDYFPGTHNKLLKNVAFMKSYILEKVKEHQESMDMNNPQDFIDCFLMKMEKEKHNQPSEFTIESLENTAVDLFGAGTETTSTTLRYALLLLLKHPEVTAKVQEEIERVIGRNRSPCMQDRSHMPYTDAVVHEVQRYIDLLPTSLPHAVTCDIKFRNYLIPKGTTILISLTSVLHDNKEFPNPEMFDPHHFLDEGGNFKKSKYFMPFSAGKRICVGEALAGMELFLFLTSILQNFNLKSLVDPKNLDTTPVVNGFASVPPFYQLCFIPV
Structure (SMILES),IC50 [1],IC50 [2],CYP2C19 Efficacy (in parenthesis) [3],IC50 [3],Luciferase IC50 (half-maximal inhibitory concentration) [4],IC50 [5],CYP3A4 Efficacy (in parenthesis) [6],IC50 [6],CYP3A4 IC50 (half-maximal inhibitory concentration) [6],further results
Cl.Clc1ccc(Cn2c(CN3CCCC3)nc3ccccc32)cc1 [Clemizole hydrochloride],1.56 µM,16.1 µM,0.68 ± 0.17 (-140 ± 7) %,0.68 µM,Inactive,17.6 µM,6.24 ± 1.17 (-72 ± 1) %,6.24 µM,–,CYP2D6 Efficacy (in parenthesis) [1]: 1.56 ± 0.18 (-101 ± 1) %; CYP2C9 Efficacy (in parenthesis) [2]: 16.12 ± 1.09 (-82 ± 4) %; CYP1A2 Efficacy (in parenthesis) [5]: 17.64 ± 0.46 (-72 ± 13) %
Cl.Clc1ccc(C(OCCN2CCCCC2)c2ccccc2)cc1 (stereo not shown) [Cloperastine hydrochloride],0.17 µM,–,–,18.5 µM,–,22.5 µM,–,4.43 µM,–,CYP2C9 IC50 [2]: Inactive; Luciferase IC50 [4]: Inactive
CC(=O)O.CC(C)c1ccc2c(c1)CC[C@H]1[C@](C)(CN)CCC[C@]21C [Dehydroabietylamine acetate],1.51 µM,42.2 µM,14.98 ± 6.91 (-121 ± 11) %,15 µM,Inactive,38.6 µM,0.41 ± 0.13 (-82 ± 3) %,0.41 µM,–,CYP2D6 Efficacy (in parenthesis) [1]: 1.51 ± 0.43 (-90 ± 10) %; CYP2C9 Efficacy (in parenthesis) [2]: 42.19 ± 26.12 (-70 ± 20) %; CYP1A2 Efficacy (in parenthesis) [5]: 38.64 ± 5.32 (-53 ± 5) %
C[C@@H]1C[C@H]2[C@@H]3CCC4=CC(=O)C=C[C@]4(C)[C@@]3(F)[C@@H](O)C[C@]2(C)[C@@]1(O)C(=O)COC(=O)c1ccncc1 [Dexamethasone isonicotinate],9.5 µM,7.32 µM,–,23.4 µM,Inactive,–,–,0.81 µM,–,CYP1A2 IC50 (half-maximal inhibitory concentration) [5]: Inactive
COS(=O)(=O)[O-].Cn1c(-c2ccccc2)cc(-c2ccccc2)[n+]1C [Difenzoquat metilsulfate],0.44 µM,–,–,–,–,–,–,–,–,CYP2C9 IC50 [2]: Inactive; CYP2C19 IC50 [3]: Inactive; Luciferase IC50 [4]: Inactive; CYP1A2 IC50 [5]: Inactive; CYP3A4 IC50 [6]: Inactive
C=CC(=O)OCC(CO)(COCC(COC(=O)C=C)(COC(=O)C=C)COC(=O)C=C)COC(=O)C=C [Dipentaerythritol pentaacrylate],26.7 µM,7.3 µM,8.87 ± 1.02 (-135 ± 9) %,8.87 µM,Inactive,–,0.43 ± 0.03 (-94 ± 4) %,0.43 µM,–,CYP2D6 Efficacy (in parenthesis) [1]: 26.69 ± 11.98 (-72 ± 6) %; CYP2C9 Efficacy (in parenthesis) [2]: 7.3 ± 0.49 (-101 ± 2) %; CYP1A2 IC50 (half-maximal inhibitory concentration) [5]: Inactive
CCc1ccc(C(=O)C(C)CN2CCCCC2)cc1.Cl (stereo not shown) [Eperisone hydrochloride],0.51 µM,–,–,4.72 µM,Inactive,29.2 µM,–,–,Inactive,CYP2C9 IC50 (half-maximal inhibitory concentration) [2]: Inactive
CCOC(CN1CCN(CC(C)C(=O)c2ccccc2)CC1)c1ccccc1.Cl.Cl (stereo not shown) [Eprazinone dihydrochloride],0.2 µM,11.5 µM,–,–,Inactive,–,–,–,15.16 ± 1.74 (64 ± 2) µM,AC50 [1]: 0.2 µM; AC50 [2]: 11.5 µM; CYP2C19 IC50 (half-maximal inhibitory concentration) [3]: Inactive; CYP1A2 IC50 (half-maximal inhibitory concentration) [5]: Inactive; AC50 [6]: 15.2 µM
CCc1cc(Cl)c(OC)c(C(=O)NC[C@@H]2CCCN2CC)c1O.Cl [Eticlopride hydrochloride],–,–,–,–,Inactive,13.5 µM,–,–,Inactive,CYP2D6 Efficacy [1]: 0.67 ± 0.09 (-96 ± 1) %; CYP2C9 IC50 (half-maximal inhibitory concentration) [2]: Inactive; CYP2C19 IC50 (half-maximal inhibitory concentration) [3]: Inactive
Cc1[nH]cnc1C[C@H]1CCc2c(C)c3ccccc3n2C1=O.Cl [Fabesetron hydrochloride],–,–,–,1.67 µM,Inactive,1.56 µM,–,1.89 µM,–,CYP2D6 Efficacy [1]: 3.52 ± 0.74 (-103 ± 4) %; CYP2C9 Efficacy [2]: 0.51 ± 0.09 (-90 ± 4) %
O=S(=O)(Oc1ccc(Cl)cc1)c1ccccc1 [Fenson],35.7 µM,34.3 µM,0.78 ± 0.29 (-135 ± 6) %,0.78 µM,–,5.64 µM,6.61 ± 0.84 (131 ± 4) %,–,6.61 ± 0.84 (131 ± 4) µM,AC50 [1]: 35.7 µM; CYP2D6 Efficacy [1]: 35.73 ± 4.11 (-62 ± 14) %; AC50 [2]: 34.3 µM; CYP2C9 Efficacy [2]: 34.28 ± 2.23 (-89 ± 7) %; CYP2C19 Efficacy [3]: 0.78 ± 0.29 (-135 ± 6) %; Luciferase Efficacy (in parenthesis) [4]: 76.75 ± 5.00 (-30 ± 10) %; IC50 ([4]; read-out: Luciferase IC50 (half-maximal inhibitory concentration)): 76.8 µM; CYP1A2 Efficacy [5]: 5.64 ± 0.00 (-100 ± 5) %; CYP1A2 Efficacy (in parenthesis) [5]: 5.64 ± 0 (-100 ± 5) %; AC50 [6]: 6.61 µM

# Source: article PMC12155096 (International Journal of Molecular Sciences, 2025)
